One data set deals with pseudorabies virus. Kind of data set: microbe, parasite or virus in culture. In kind it is cell-based.
Another data set concerns Neisseria gonorrhea. Kind of data set: Growth inhibition on chocolate agar containing resveratrol. The data set is classed as cell-based. The protocol:
Stock solutions of the resveratrol, obtained from Sigma Chemical Co, St. Louis, Mo. were prepared in 100% ethanol. Different quantities of the stock solution where added to melted chocolate agar which was then poured into a petri dish and allowed to solidify. […] The final concentration of ethanol in the agar was 0.5%. Control plates containing chocolate agar and ethanol at a final concentration of 0.5% were also prepared. Neisseria gonorrhea was obtained from patients diagnosed with gonorrhea. The authenticity of the bacterium was confirmed utilizing standard microbiological techniques of identification. Cultures of the bacterial isolate were inoculated onto fresh plates and then 24 hours later, a suspension was made from isolated colonies. […] Thereafter, the samples were incubated at 37° C. with or without 5% CO2. All samples were visually examined for growth of the bacterium 24 hours later to determine the concentration of resveratol that inhibits growth by 50% (MIC50) as well as the concentration which inhibits any visible growth (MIC100)

The test system of the next data set is Neisseria meningitidis. The data set is described as above. The data set is classed as cell-based. As for the experimental part:
Stock solutions of the resveratrol, obtained from Sigma Chemical Co, St. Louis, Mo. were prepared in 100% ethanol. Different quantities of the stock solution where added to melted chocolate agar which was then poured into a petri dish and allowed to solidify. […] The final concentration of ethanol in the agar was 0.5%. Control plates containing chocolate agar and ethanol at a final concentration of 0.5% were also prepared. A culture of Neisseria […] obtained from the American Type Culture Collection. Authenticity of the bacterium was confirmed utilizing standard microbiological techniques of identification. Cultures of the bacterial isolate were inoculated onto fresh plates and then 24 hours later, a suspension was made from isolated colonies. […] Thereafter, the samples were incubated at 37° C. with or without 5% CO2. All samples were visually examined for growth of the bacterium 24 hours later to determine the resveratrol concentration that inhibits growth by 50% (MIC50) and the resveratrol concentration which inhibits any visible growth (MIC100)

The next data set deals with Escherichia coli. Briefly: Inhibitory concentration on bacteria and yeast in vitro. In kind it is cell-based.
The subject of another data set is Staphylococcus aureus. The description is as above. The data set is classed as cell-based.
For data set [1], the system named is Group A Beta Streptococcus. Described as above. In kind it is cell-based.
The next data set has as its system Pseudomonas aeruginosa. The description is as above. The data set is classed as cell-based.
In a further data set the test system is Candida albicans. Described as above. The data set is classed as cell-based.
[2] abbreviates: complete inhibition of bacterial growth after 24 hours.
[3] abbreviates: concentrations ranging from 1 μg/ml to 200 μg/ml of solution.

Values after ≈ are worked out from the molar mass of the structure shown.

In general, inhibition refers to the change of the read-out against control, counted positive when it falls. By IC50 is commonly meant the point on the concentration scale where inhibition reaches its midpoint.

For the compound `Oc1ccc(/C=C/c2cc(O)cc(O)c2)cc1` [resveratrol, 3,5,4′-trihdyroxystilbene], the “reversibility of effect on pseudorabies virus replication” value in the data set with pseudorabies virus is given as “reversible”. Further, the inhibition at 50 µg/mL with pseudorabies virus (Suid alphaherpesvirus 1, Vero, 24 h, read-out: inhibition of formation of infectious virus particles) was more than 99%. In addition, the “infectious pseudorabies virus particles in cultures” value in the data set on pseudorabies virus (continuously incubated with 50 μg/ml resveratrol, 72 hours) is listed as “virtually undetectable”. Further, the IC50 was 25 µg/mL (≈ 110 µM) in the data set on Neisseria gonorrhea (Neisseria, 50% reduction in bacterial growth after 24 hours); 100 µg/mL (≈ 438 µM) in the data set on Neisseria meningitidis (Neisseria meningitidis, 50% reduction in bacterial growth after 24 hours); more than 200 µg/mL in the data set with Escherichia coli (Escherichia coli, 50% reduction in bacterial growth after 24 hours); more than 200 µg/mL with Staphylococcus aureus (Staphylococcus aureus, 50% reduction in bacterial growth after 24 hours); more than 200 µg/mL in [1] (Streptococcus, 50% reduction in bacterial growth after 24 hours); more than 200 µg/mL in the data set on Pseudomonas aeruginosa (Pseudomonas aeruginosa, 50% reduction in bacterial growth after 24 hours). For the same compound, the IC50 in the data set with Candida albicans (Candida albicans, 50% reduction in bacterial growth after 24 hours) is more than 200 µg/mL. In addition, the IC100 in the data set on Neisseria gonorrhea (setting [2]) was 75 µg/mL; with Neisseria meningitidis (setting [2]), 125 µg/mL; with Escherichia coli (setting [2]), more than 200 µg/mL; in the data set on Staphylococcus aureus (setting [2]), more than 200 µg/mL; in data set [1] (setting [2]), more than 200 µg/mL; in the data set on Pseudomonas aeruginosa (setting [2]), more than 200 µg/mL. The same compound came in with an IC100 in the data set on Candida albicans (setting [2]) of more than 200 µg/mL. Further, the growth inhibition entry (in the data set on Escherichia coli (setting [3]); in the data set with Staphylococcus aureus (setting [3]); in data set [1] (setting [3]); with Pseudomonas aeruginosa (setting [3]); in the data set on Candida albicans (setting [3])) was “does not inhibit the growth” each time. The “toxicity to cultured cells” value in the data set on cultured cells is recorded as “non-toxic to cells”.

For the origin of these results see patent publication US6355692B2, “Method of inhibiting formation of infectious microorganisms” (Northeastern Ohio Universities College of Medicine, priority 1998, dated 2002).
